# Tests used:
# Type in all cases: cell-based
# [1] = test system: T24 bladder cancer cells; assay: Cancer cell survival (CellTiter-Glo), T24; conditions: 72 h
# Method: (§1) The cells were prepared as follows. Cells were harvested during logarithmic growth, counted, and adjusted to 4.44×10^4 cells/mL with culture media. 90 μL of suspended cells were added to wells of 96-well plates for a final cell count of 4×10^3 cells/well. The plates were incubated overnight at 37 C with 5% CO2 overnight.
# (§2) The test compounds were assayed as follows. Compound solutions were mixed at 10× final concentrations in cell media: 1 μM-10 mM (fatty acids) or 100 nM-1 mM (all other compounds). […] of solution was added to each well of cells in triplicate for each concentration. Well plates were incubated for 72 h at 37 C with 5% CO2 and then assayed with CellTiter-Glo by adding 50 μL of CTG solution to each well. Cells were lysed by shaking on an orbital shaker for 5 min. Plates were incubated at room temperature for 20 min and then each well's luminescence was measured. The surviving percentage of cells was determined as:
# (§3) Survival %=(LumTest article−LumMedium control)/(LumNone treated−LumMedium control)[…]
# Efficacy was assessed at nine concentration levels for each compound and the 50% inhibition concentration (IC50) determined for each compound.
# [2] = test system: Daudi lymphoma cancer cells; assay: Cancer cell survival (CellTiter-Glo), Daudi; conditions: 72 h
# Method: as §1, §2, §3
# Activity was assessed at nine concentration levels for each compound and the 50% inhibition concentration (IC50) determined for each compound.
# [3] = test system: MCF7 breast cancer cells; assay: Cancer cell survival (CellTiter-Glo), MCF7; conditions: 72 h
# Method: as §1, §2, §3
# (§4) Cytotoxicity was assessed at nine concentration levels for each compound and the 50% inhibition concentration (IC50) determined for each compound.
# [4] = test system: HCT 116 colorectal cancer cells; assay: Cancer cell survival (CellTiter-Glo), HCT 116; conditions: HCT 116 cells, 72 h
# Method: as §1, §2, §3, §4
# [5] = test system: A549 lung cancer cells; assay: Cancer cell survival (CellTiter-Glo), A549; conditions: 72 h
# Method: as §1, §2, §3, §4
# [6] = test system: PC-3 prostate cancer cells; assay: Cancer cell survival (CellTiter-Glo), PC-3; conditions: PC-3 cells, 72 h
# Method: as §1, §2, §3, §4
# [7] = test system: A-431 skin cancer cells; assay: Cancer cell survival (CellTiter-Glo), A-431; parameters: Cell survival at given concentration: unit not given here; conditions: A-431 cells, 72 h
# Method: as §1, §2, §3, §4
# [8] = test system: AGS stomach cancer cells; assay: Cancer cell survival (CellTiter-Glo), AGS; parameters: Cell survival at given concentration: unit not given here
# Method: as §1, §2, §3, §4
smiles,measurement,setting,value
CC(O)CC(=O)O (stereo not drawn) [beta-hydroxybutyrate],Cell survival at given concentration,"[1]; 1 μM, Table 3.2",0.97
same,Cell survival at given concentration,"[1]; 3 μM, Table 3.2",1.00
same,Cell survival at given concentration,"[1]; 10 μM, Table 3.2",0.98
same,Cell survival at given concentration,"[1]; 32 μM, Table 3.2",0.95
same,Cell survival at given concentration,"[1]; 100 μM, Table 3.2",0.96
same,Cell survival at given concentration,[1]; 317 μM,1.02
same,Cell survival at given concentration,[1]; 1 mM,0.99
same,Cell survival at given concentration,[1]; 3 mM,0.99
same,Cell survival at given concentration,[1]; 10 mM,1.00
same,Cell survival at given concentration,"[2]; 1 μM, Table 4.2",1.01
same,Cell survival at given concentration,"[2]; 3 μM, Table 4.2",0.99
same,Cell survival at given concentration,"[2]; 10 μM, Table 4.2",0.98
same,Cell survival at given concentration,"[2]; 32 μM, Table 4.2",0.98
same,Cell survival at given concentration,"[2]; 100 μM, Table 4.2",1.02
same,Cell survival at given concentration,[2]; 317 μM,0.99
same,Cell survival at given concentration,[2]; 1 mM,0.99
same,Cell survival at given concentration,[2]; 3 mM,0.96
same,Cell survival at given concentration,[2]; 10 mM,0.91
same,Cell survival at given concentration,"[3]; 1 μM, Table 5.2",1.00
same,Cell survival at given concentration,"[3]; 3 μM, Table 5.2",1.00
same,Cell survival at given concentration,"[3]; 10 μM, Table 5.2",1.00
same,Cell survival at given concentration,"[3]; 32 μM, Table 5.2",1.01
same,Cell survival at given concentration,"[3]; 100 μM, Table 5.2",1.03
same,Cell survival at given concentration,[3]; 317 μM,1.01
same,Cell survival at given concentration,[3]; 1 mM,0.97
same,Cell survival at given concentration,[3]; 3 mM,0.92
same,Cell survival at given concentration,[3]; 10 mM,0.91
same,Cell survival at given concentration,"[4]; 1 μM, Table 6.2",0.98
same,Cell survival at given concentration,"[4]; 3 μM, Table 6.2",1.00
same,Cell survival at given concentration,"[4]; 10 μM, Table 6.2",0.99
same,Cell survival at given concentration,"[4]; 32 μM, Table 6.2",0.98
same,Cell survival at given concentration,"[4]; 100 μM, Table 6.2",1.00
same,Cell survival at given concentration,[4]; 317 μM,1.03
same,Cell survival at given concentration,[4]; 1 mM,1.01
same,Cell survival at given concentration,[4]; 3 mM,0.96
same,Cell survival at given concentration,[4]; 10 mM,0.90
same,Cell survival at given concentration,"[5]; 1 μM, Table 7.2",1.00
same,Cell survival at given concentration,"[5]; 3 μM, Table 7.2",0.99
same,Cell survival at given concentration,"[5]; 10 μM, Table 7.2",1.01
same,Cell survival at given concentration,"[5]; 32 μM, Table 7.2",1.02
same,Cell survival at given concentration,"[5]; 100 μM, Table 7.2",1.05
same,Cell survival at given concentration,[5]; 317 μM,1.01
same,Cell survival at given concentration,[5]; 1 mM,1.01
same,Cell survival at given concentration,[5]; 3 mM,1.01
same,Cell survival at given concentration,[5]; 10 mM,0.98
same,IC50,[5]; Table 7.2,> 10 mM
same,Cell survival at given concentration,"[6]; 1 μM, Table 8.2",1.01
same,Cell survival at given concentration,"[6]; 3 μM, Table 8.2",1.00
same,Cell survival at given concentration,"[6]; 10 μM, Table 8.2",1.01
same,Cell survival at given concentration,"[6]; 32 μM, Table 8.2",1.03
same,Cell survival at given concentration,"[6]; 100 μM, Table 8.2",1.03
same,Cell survival at given concentration,[6]; 317 μM,1.03
same,Cell survival at given concentration,[6]; 1 mM,1.01
same,Cell survival at given concentration,[6]; 3 mM,1.00
same,Cell survival at given concentration,[6]; 10 mM,0.97
same,Cell survival at given concentration,"[7]; 1 μM, Table 9.2",1.01
same,Cell survival at given concentration,"[7]; 3 μM, Table 9.2",1.02
same,Cell survival at given concentration,"[7]; 10 μM, Table 9.2",1.03
same,Cell survival at given concentration,"[7]; 32 μM, Table 9.2",1.03
same,Cell survival at given concentration,"[7]; 100 μM, Table 9.2",1.03
same,Cell survival at given concentration,[7]; 317 μM,1.05
same,Cell survival at given concentration,[7]; 1 mM,1.05
same,Cell survival at given concentration,[7]; 3 mM,1.03
same,Cell survival at given concentration,[7]; 10 mM,1.01
same,Cell survival at given concentration,"[8]; 1 μM, Table 10.2",1.01
same,Cell survival at given concentration,"[8]; 3 μM, Table 10.2",1.03
same,Cell survival at given concentration,"[8]; 10 μM, Table 10.2",1.01
same,Cell survival at given concentration,"[8]; 32 μM, Table 10.2",1.02
same,Cell survival at given concentration,"[8]; 100 μM, Table 10.2",1.04
same,Cell survival at given concentration,[8]; 317 μM,1.03
same,Cell survival at given concentration,[8]; 1 mM,1.04
same,Cell survival at given concentration,[8]; 3 mM,1.03
same,Cell survival at given concentration,[8]; 10 mM,1.00
CC(O)CCO (stereo not shown) [butanediol],Cell survival at given concentration,"[1]; 1 μM, Table 3.2",1.02
same,Cell survival at given concentration,"[1]; 3 μM, Table 3.2",1.03
same,Cell survival at given concentration,"[1]; 10 μM, Table 3.2",0.99
same,Cell survival at given concentration,"[1]; 32 μM, Table 3.2",1.00
same,Cell survival at given concentration,"[1]; 100 μM, Table 3.2",1.01
same,Cell survival at given concentration,[1]; 317 μM,1.03
same,Cell survival at given concentration,[1]; 1 mM,1.02
same,Cell survival at given concentration,[1]; 3 mM,1.00
same,Cell survival at given concentration,[1]; 10 mM,1.00
same,Cell survival at given concentration,"[2]; 1 μM, Table 4.2",0.98
same,Cell survival at given concentration,"[2]; 3 μM, Table 4.2",0.97
same,Cell survival at given concentration,"[2]; 10 μM, Table 4.2",0.97
same,Cell survival at given concentration,"[2]; 32 μM, Table 4.2",0.98
same,Cell survival at given concentration,"[2]; 100 μM, Table 4.2",1.00
same,Cell survival at given concentration,[2]; 317 μM,1.01
same,Cell survival at given concentration,[2]; 1 mM,1.00
same,Cell survival at given concentration,[2]; 3 mM,1.00
same,Cell survival at given concentration,[2]; 10 mM,1.00
same,Cell survival at given concentration,"[3]; 1 μM, Table 5.2",1.00
same,Cell survival at given concentration,"[3]; 3 μM, Table 5.2",0.99
same,Cell survival at given concentration,"[3]; 10 μM, Table 5.2",0.98
same,Cell survival at given concentration,"[3]; 32 μM, Table 5.2",1.02
same,Cell survival at given concentration,"[3]; 100 μM, Table 5.2",1.03
same,Cell survival at given concentration,[3]; 317 μM,1.01
same,Cell survival at given concentration,[3]; 1 mM,1.00
same,Cell survival at given concentration,[3]; 3 mM,0.98
same,Cell survival at given concentration,[3]; 10 mM,0.96
same,Cell survival at given concentration,"[4]; 1 μM, Table 6.2",0.98
same,Cell survival at given concentration,"[4]; 3 μM, Table 6.2",0.96
same,Cell survival at given concentration,"[4]; 10 μM, Table 6.2",0.98
same,Cell survival at given concentration,"[4]; 32 μM, Table 6.2",0.97
same,Cell survival at given concentration,"[4]; 100 μM, Table 6.2",1.00
same,Cell survival at given concentration,[4]; 317 μM,1.02
same,Cell survival at given concentration,[4]; 1 mM,1.01
same,Cell survival at given concentration,[4]; 3 mM,0.99
same,Cell survival at given concentration,[4]; 10 mM,0.95
same,Cell survival at given concentration,"[5]; 1 μM, Table 7.2",0.95
same,Cell survival at given concentration,"[5]; 3 μM, Table 7.2",0.97
same,Cell survival at given concentration,"[5]; 10 μM, Table 7.2",1.03
same,Cell survival at given concentration,"[5]; 32 μM, Table 7.2",1.01
same,Cell survival at given concentration,"[5]; 100 μM, Table 7.2",1.00
same,Cell survival at given concentration,[5]; 317 μM,1.02
same,Cell survival at given concentration,[5]; 1 mM,1.01
same,Cell survival at given concentration,[5]; 3 mM,0.97
same,Cell survival at given concentration,[5]; 10 mM,0.98
same,Cell survival at given concentration,"[6]; 1 μM, Table 8.2",1.00
same,Cell survival at given concentration,"[6]; 3 μM, Table 8.2",0.99
same,Cell survival at given concentration,"[6]; 10 μM, Table 8.2",1.03
same,Cell survival at given concentration,"[6]; 32 μM, Table 8.2",1.02
same,Cell survival at given concentration,"[6]; 100 μM, Table 8.2",1.00
same,Cell survival at given concentration,[6]; 317 μM,1.02
same,Cell survival at given concentration,[6]; 1 mM,0.97
same,Cell survival at given concentration,[6]; 3 mM,0.98
same,Cell survival at given concentration,[6]; 10 mM,0.96
same,Cell survival at given concentration,"[7]; 1 μM, Table 9.2",1.02
same,Cell survival at given concentration,"[7]; 3 μM, Table 9.2",1.03
same,Cell survival at given concentration,"[7]; 10 μM, Table 9.2",1.04
same,Cell survival at given concentration,"[7]; 32 μM, Table 9.2",1.04
same,Cell survival at given concentration,"[7]; 100 μM, Table 9.2",1.03
same,Cell survival at given concentration,[7]; 317 μM,1.04
same,Cell survival at given concentration,[7]; 1 mM,1.02
same,Cell survival at given concentration,[7]; 3 mM,1.02
same,Cell survival at given concentration,[7]; 10 mM,1.01
same,Cell survival at given concentration,"[8]; 1 μM, Table 10.2",1.01
same,Cell survival at given concentration,"[8]; 3 μM, Table 10.2",1.02
same,Cell survival at given concentration,"[8]; 10 μM, Table 10.2",1.03
same,Cell survival at given concentration,"[8]; 32 μM, Table 10.2",1.05
same,Cell survival at given concentration,"[8]; 100 μM, Table 10.2",1.04
same,Cell survival at given concentration,[8]; 317 μM,1.02
same,Cell survival at given concentration,[8]; 1 mM,1.06
same,Cell survival at given concentration,[8]; 3 mM,1.02
same,Cell survival at given concentration,[8]; 10 mM,0.98

# From patent US20210085640A1, “ACYLATED CATECHIN POLYPHENOLS AND METHODS OF THEIR USE FOR THE TREATMENT OF CANCER” (Flagship Pioneering Innovations V, Inc., priority 2018, published 2021)
